Assay results: US20250092002A1, “FLUORINATED CATIONIC LIPIDS FOR USE IN LIPID NANOPARTICLES” (Acuitas Therapeutics, Inc., priority 2021, published 2025)
Where two headings read alike, the source gives them in different places. Marks after values point to notes of the source that are not given here.

Experiments:
[1] = Determination of pKa of formulated lipids (TNS fluorescence assay in lipid nanoparticles); assay type: physicochemical; conditions: cationic lipid formulated in lipid nanoparticles (cationic lipid/DSPC/cholesterol/PEG-lipid 47.5/10/40.7/1.8 mol %)
Procedure: As described elsewhere, the pKa of formulated cationic lipids is correlated with the effectiveness of LNPs for delivery of nucleic acids (see Jayaraman et al, Angewandte Chemie, International Edition (2012), 51(34), 8529-8533; Semple et al, Nature Biotechnology 28, 172-176 (2010)). The preferred range of pKa is ˜5 to ˜7. The pKa of each cationic lipid was determined in lipid nanoparticles using an assay based on fluorescence of 2-(p-toluidino)-6-napthalene sulfonic acid (TNS). Lipid nanoparticles comprising cationic lipid/DSPC/cholesterol/PEG-lipid (47.5/10/40.7/1.8 mol %) in PBS at a concentration of 0.4 mM total lipid were prepared using the in-line process as described in Example 1. TNS was prepared as a 100 μM stock solution in distilled water. Vesicles were diluted to 24 μM lipid in 2 mL of buffered solutions containing, 10 mM HEPES, 10 mM MES, 10 mM ammonium acetate, 130 mM NaCl, where the pH ranged from 2.5 to 11. An aliquot of the TNS solution was added to give a final concentration of 1 μM and following vortex mixing fluorescence intensity was measured at room temperature in a SLM Aminco Series 2 Luminescence Spectrophotometer using excitation and emission wavelengths of 321 nm and 445 nm. A sigmoidal best fit analysis was applied to the fluorescence data and the pKa was measured as the pH giving rise to half-maximal fluorescence intensity.

[2] = tested on: luciferase expression in the liver; test: In vivo luciferase mRNA expression rodent model (liver luciferase after tail vein injection of mRNA-LNP); parameters: species or system mice; conditions: for Liver Luc @ 0.5 mg/kg (ng luc/g liver): 0.5 mg mRNA/kg; for Liver Luc @ 0.5 mg/kg (ng luc/g liver) / Liver Luc (ng luc/g liver), determined at 0.3 mg/kg / Liver Luc (ng luc/g liver), determined at 1.0 mg/kg: tail vein injection, liver 4 hours after administration; for Liver Luc (ng luc/g liver), determined at 0.3 mg/kg: 0.3 mg/kg (footnote *); for efficacy toward activation of the Luciferase mRNA expression as compared with non-fluorinated analogue: 0.3 mg/kg and 1.0 mg/kg, versus I-5 analogue and I-11 analogue respectively
Procedure: Lipid nanoparticles were prepared and tested according to the general procedures described in PCT Pub. Nos. WO 2015/199952 and WO 2017/004143, the full disclosures of which are incorporated herein by reference. Briefly, cationic lipid, DSPC, cholesterol and PEG-lipid were solubilized in ethanol at a molar ratio of about 50:10:38.5:1.5 or about 47.5:10:40.7:1.8. Lipid nanoparticles (LNP) were prepared at a total lipid to mRNA weight ratio of approximately 10:1 to 40:1. The mRNA is diluted to 0.2 mg/mL in 10 to 50 mM citrate or acetate buffer, pH 4. Syringe pumps were used to mix the ethanolic lipid solution with the mRNA aqueous solution at a ratio of about 1:5 to 1:3 (vol/vol) with total flow rates above 15 mL/min. The ethanol was then removed and the external buffer replaced with PBS by dialysis. Finally, the lipid nanoparticles were filtered through a 0.2 µm pore sterile filter. Lipid nanoparticle particle size was approximately 55-95 nm diameter, and in some instances approximately 70-90 nm diameter as determined by quasi-elastic light scattering using a Malvern Zetasizer Nano ZS (Malvern, UK).
Studies were performed in 6-8 week old female C57BL/6 mice (Charles River) or 8-10 week old CD-1 (Harlan) mice (Charles River) according to guidelines established by an institutional animal care committee (ACC) and the Canadian Council on Animal Care (CCAC). Varying doses of mRNA-lipid nanoparticle were systemically administered by tail vein injection and animals euthanized at a specific time point (e.g., 4 hours) post-administration. Liver and spleen were collected in pre-weighed tubes, weights determined, immediately snap frozen in liquid nitrogen and stored at −80° C. until processing for analysis.
For liver, approximately 50 mg was dissected for analyses in a 2 mL FastPrep tubes (MP Biomedicals, Solon OH). ¼″ ceramic sphere (MP Biomedicals) is added to each tube and 500 μL of Glo Lysis Buffer—GLB (Promega, Madison WI) equilibrated to room temperature is added to liver tissue. Liver tissues were homogenized with the FastPrep24 instrument (MP Biomedicals) at 2×6.0 m/s for 15 seconds. Homogenate was incubated at room temperature for 5 minutes prior to a 1:4 dilution in GLB and assessed using SteadyGlo Luciferase assay system (Promega). Specifically, 50 μL of diluted tissue homogenate was reacted with 50 μL of SteadyGlo substrate, shaken for 10 seconds followed by 5 minute incubation and then quantitated using a CentroXS^3 LB 960 luminometer (Berthold Technologies, Germany). The amount of protein assayed was determined by using the BCA protein assay kit (Pierce, Rockford IL). Relative luminescence units (RLU) were then normalized to total μg protein assayed. To convert RLU to ng luciferase a standard curve was generated with QuantiLum Recombinant Luciferase (Promega).
The FLuc mRNA (L-6107 or L-7202) from Trilink Biotechnologies will express a luciferase protein, originally isolated from the firefly, Photimus pyralis. FLuc is commonly used in mammalian cell culture to measure both gene expression and cell viability. It emits bioluminescence in the presence of the substrate, luciferin. This capped and poly-adenylated mRNA was fully substituted with respect to uridine and/or cytidine nucleosides.
Representative compounds of the disclosure shown in Table 2 were formulated using the following molar ratio: 50% cationic lipid/10% distearoylphosphatidylcholine (DSPC)/38.5% Cholesterol/1.5% PEG lipid 2-[2-(ω-methoxy(polyethyleneglycol2000)ethoxy]-N,N-ditetradecylacetamide) or 47.5% cationic lipid/10% DSPC/40.7% Cholesterol/1.8% PEG lipid. Relative activity was determined by measuring luciferase expression in the liver 4 hours following administration via tail vein injection as described in Example 1. The activity was compared at a dose of 1.0 or 0.5 or 0.3 mg mRNA/kg and expressed as ng luciferase/g liver measured 4 hours after administration, as described in Example 1. Compound numbers in Table 2 refer to the compound numbers of Table 1. […]

[3] = probe 2-(p-toluidino)-6-napthalene sulfonic acid (TNS), 1 µM final, read-out: pKa

| SMILES | pKa [1, 3] | Liver Luc @ 0.5 mg/kg (ng luc/g liver) [2] | Liver Luc (ng luc/g liver), determined at 0.3 mg/kg [2] | efficacy toward activation of the Luciferase mRNA expression as compared with non-fluorinated analogue [2] | Liver Luc (ng luc/g liver), determined at 1.0 mg/kg [2] | pKa [1] |
| --- | --- | --- | --- | --- | --- | --- |
| CCCCCCCCC(CCCCCC)COC(=O)CCCCCC(CCCCCC(=O)OCC(CCCCCC)CCCCCCCC)N(CCCN(C)C)C(=O)CCCC(F)(F)F (stereo not shown) [Compound I-13, BIS(2-HEXYLDECYL) 7-(N-(3-(DIMETHYLAMINO)PROPYL)-5,5,5-TRIFLUOROPENTANAMIDO)TRIDECANEDIOATE] | 6.68 | 658 ± 262 ng luc/g liver |  |  |  |  |
| CCCCCCCCC(CCCCCC)COC(=O)CCCCCC(CCCCCC(=O)OCC(CCCCCC)CCCCCCCC)N(CCN1CCN(C)CC1)C(=O)C(F)(F)C(F)(F)C(F)(F)C(F)(F)C(F)(F)C(F)(F)C(F)(F)F (stereo not shown) [Compound I-8, BIS(2-HEXYLDECYL) 7-(2,2,3,3,4,4,5,5,6,6,7,7,8,8,8-PENTADECAFLUORO-N-(2-(4-METHYLPIPERAZIN-1-YL)ETHYL)OCTANAMIDO)TRIDECANEDIOATE] | 5.58 | 0 ng luc/g liver |  |  |  |  |
| CCCCC(CC)COC(=O)CCCCCCCCC(CCCCCCCCC(=O)OCC(CC)CCCC)N(CCCCN(C)C)C(=O)C(F)(F)C(F)(F)C(F)(F)C(F)(F)C(F)(F)C(F)(F)C(F)(F)F (stereo not shown) [Compound I-5, BIS(2-ETHYLHEXYL) 10-(N-(4-(DIMETHYLAMINO)BUTYL)-2,2,3,3,4,4,5,5,6,6,7,7,8,8,8-PENTADECAFLUOROOCTANAMIDO)NONADECANEDIOATE] | 5.92 |  | 3645 ± 1347 ng luc/g liver | increased efficacy | 21585 ± 6204 ng luc/g liver |  |
| CCCCCCCC(=O)N(C(=O)CCCCN(C)C)C(CCCCCC(=O)OCC(CCCC)CCCCC)CCCCCC(=O)OCC(CCCC)CCCCCC (stereo not shown) [I-11 analogue, reference compound] |  |  | 1626 ± 472 ng luc/g liver |  | 8102 ± 4319 ng luc/g liver | 7.04 |
| CCCCCCCCC(CCCCCC)COC(=O)CCCCCCCCC(CCCCCCCCC(=O)OCC(CCCCCC)CCCCCCCC)N(CCCN(C)C)C(=O)CCCC(F)(F)F (stereo not shown) [Compound I-14, BIS(2-HEXYLDECYL) 10-(N-(3-(DIMETHYLAMINO)PROPYL)-5,5,5-TRIFLUOROPENTANAMIDO)NONADECANEDIOATE] | 6.28 | 331 ± 127 ng luc/g liver |  |  |  |  |
| CCCCC(CC)COC(=O)CCCCCCCCC(CCCCCCCCC(=O)OCC(CC)CCC)N(CCCCN(C)C)C(=O)C(F)(F)C(F)(F)C(F)(F)C(F)(F)C(F)(F)C(F)(F)C(F)(F)F (stereo not shown) [I-5 analogue, reference compound] |  |  | 666 ± 589 ng luc/g liver |  | 1338 ± 798 ng luc/g liver | 6.86 |
| CCCCCCC(CCCC)COC(=O)CCCCCC(CCCCCC(=O)OCC(CCCC)CCCCCC)N(CCN(C)C)C(=O)CCCC(F)(F)F (stereo not shown) [Compound I-16, BIS(2-BUTYLOCTYL) 7-(N-(2-(DIMETHYLAMINO)ETHYL)-5,5,5-TRIFLUOROPENTANAMIDO)TRIDECANEDIOATE] | 5.97 | 1233 ± 305 ng luc/g liver |  |  |  |  |
| CCCCCCCCC(CCCCCC)COC(=O)CCCCCC(CCCCCC(=O)OCC(CCCCCC)CCCCCCCC)N(CCCN(C)C)C(=O)CC(F)(F)F (stereo not shown) [Compound I-12, BIS(2-HEXYLDECYL) 7-(N-(3-(DIMETHYLAMINO)PROPYL)-3,3,3-TRIFLUOROPROPANAMIDO)TRIDECANEDIOATE] | 6.22 |  | 138 ± 64* ng luc/g liver |  | 559 ± 207 ng luc/g liver |  |
| CCCCCCCC(F)C(=O)N(CCCN1CCCC1)C(CCCCCCCCC(=O)OCC(CCCC)CCCCCC)CCCCCCCCC(=O)OCC(CCCC)CCCCCC (stereo not shown) [Compound I-22, BIS(2-BUTYLOCTYL) 10-(2-FLUORO-N-(3-(PYRROLIDIN-1-YL)PROPYL)NONANAMIDO)NONADECANEDIOATE] | 5.96 |  | 10062 ± 2580 ng luc/g liver |  | 82847 ± 27713 ng luc/g liver |  |
| CCCCCCC(CCCC)COC(=O)CCCCCC(CCCCCC(=O)OCC(CCCC)CCCCCC)N(CCCCCN(C)C)C(=O)C(F)(F)C(F)(F)C(F)(F)C(F)(F)C(F)(F)C(F)(F)C(F)(F)F (stereo not shown) [Compound I-11, BIS(2-BUTYLOCTYL) 7-(N-(5-(DIMETHYLAMINO)PENTYL)-2,2,3,3,4,4,5,5,6,6,7,7,8,8,8-PENTADECAFLUOROOCTANAMIDO)TRIDECANEDIOATE] | 6.28 |  | 3411 ± 803* ng luc/g liver | increased efficacy | 45575 ± 11088 ng luc/g liver |  |
| CCCCCCC(CCCC)COC(=O)CCCCCC(CCCCCC(=O)OCC(CCCC)CCCCCC)N(CCCN(C)C)C(=O)CCCC(F)(F)F (stereo not shown) [Compound I-15, BIS(2-BUTYLOCTYL) 7-(N-(3-(DIMETHYLAMINO)PROPYL)-5,5,5-TRIFLUOROPENTANAMIDO)TRIDECANEDIOATE] | 6.78 | 1007 ± 671 ng luc/g liver |  |  |  |  |
| CCCCCCCCC(CCCCCC)COC(=O)CCCCCC(CCCCCC(=O)OCC(CCCCCC)CCCCCCCC)N(CCCCN(C)C)C(=O)C(F)(F)C(F)(F)C(F)(F)C(F)(F)C(F)(F)C(F)(F)C(F)(F)F (stereo not shown) [Compound I-7, BIS(2-HEXYLDECYL) 7-(N-(4-(DIMETHYLAMINO)BUTYL)-2,2,3,3,4,4,5,5,6,6,7,7,8,8,8-PENTADECAFLUOROOCTANAMIDO)TRIDECANEDIOATE] | 6.08 | 39 ± 14 ng luc/g liver |  |  |  |  |
| CCCCCCCCC(CCCCCC)COC(=O)CCCCCC(CCCCCC(=O)OCC(CCCCCC)CCCCCCCC)N(CCCCCN(C)C)C(=O)C(F)(F)C(F)(F)C(F)(F)C(F)(F)C(F)(F)C(F)(F)C(F)(F)F (stereo not shown) [Compound I-9, BIS(2-HEXYLDECYL) 7-(N-(5-(DIMETHYLAMINO)PENTYL)-2,2,3,3,4,4,5,5,6,6,7,7,8,8,8-PENTADECAFLUOROOCTANAMIDO)TRIDECANEDIOATE] | 6.32 | 25 ± 16 ng luc/g liver |  |  |  |  |
